Columns and labels:
[1] = molecular target: T1, E. coli-expressed (recombinant) coniferin beta-glucosidase (CBG) (Pinus contorta, UniProt Q9ZT64); assay: β-glucosidase assay, substrate specificity of E. coli-expressed CBG-cDNA; assay type: biochemical; conditions: substrate hydrolysis relative to coniferin; 100% activity represents 22pKat; 2 mM glucoside substrate, 0.2M MES pH 5.5, 30° C., 30 min
T1 construct: coding region for the mature protein (i.e. excluding the signal peptide) was amplified; Met-Ala-Ser (three non-CBG vector residues) (N); made in house; host or cells: E. coli BL21 (DE3), vector pET21a
T1 sequence (Q9ZT64 24-513): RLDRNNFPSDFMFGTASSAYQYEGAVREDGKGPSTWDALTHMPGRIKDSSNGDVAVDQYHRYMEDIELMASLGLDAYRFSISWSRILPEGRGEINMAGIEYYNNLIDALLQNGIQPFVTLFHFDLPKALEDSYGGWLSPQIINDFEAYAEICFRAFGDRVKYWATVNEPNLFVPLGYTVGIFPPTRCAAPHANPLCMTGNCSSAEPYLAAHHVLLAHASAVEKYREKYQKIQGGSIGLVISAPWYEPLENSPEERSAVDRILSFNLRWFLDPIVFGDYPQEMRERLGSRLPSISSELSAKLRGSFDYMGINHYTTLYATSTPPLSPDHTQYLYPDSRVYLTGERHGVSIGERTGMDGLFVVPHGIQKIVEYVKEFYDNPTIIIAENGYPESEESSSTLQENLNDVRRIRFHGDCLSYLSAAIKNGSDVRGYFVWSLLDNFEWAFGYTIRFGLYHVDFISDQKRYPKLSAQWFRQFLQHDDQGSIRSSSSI
Excerpt: To express CBG protein in E. coli, the full- length coding region for the mature protein (i.e. excluding the signal peptide) was amplified using the 3' end clone (1A6) as the template with the N-terminal primer, NT1 (5' […] 3', Seq. I.D. No. 9) containing a 5' Nhe1 site, and a C-terminal primer, CT1 (5' […] 3', Seq. I.D. No. 10) containing a Xho 1 site. The resulting 1.5 kb DNA fragment was ligated into Bluescript II KS by T/A cloning as described above. The structure of the junctions of this construct was confirmed by sequencing and it was then inserted as a Nhe1/Xho1 fragment into expression vector pET21a (Novagen). Because, the Nhe1 site was used to introduce the cDNA into the pET vector, three non-CBG amino acids (Met, Ala, Ser) were added to the N-terminus of the expressed protein. To avoid the expression of the vector His-tag at the 3' end, the native stop codon of CBG was included. The expressed protein was thus identical in sequence to the mature CBG expressed in planta, except for the additional tripeptide at the N-terminus. Following transformation into E.coli strain DH5α and verification of the plasmid integrity by restriction digestion, it was introduced into the expression host BL21 (DE3).
To express CBG, the bacteria were grown to log phase (A600 =0.6-0.9) followed by an additional 2-3 h incubation at 29-37° C. in the presence or absence of 0.4-1 mM IPTG. The expressed CBG in the soluble protein fraction was purified by preparative Q-Sepharose chromatography followed by QMA-Memsep (Millipore) chromatography.
(§1) As noted above, the functional characteristic of the CBG enzyme is its ability to hydrolyze coniferin. This activity can be measured using the simple β-glucosidase assay described by Dharwardhana et al. (1995), conducted as follows: enzyme preparations (10-50 μl) and glucoside substrate (coniferin) (2 mM final concentration) in 0.2M MES, pH 5.5 buffer in a final volume of 150 μl are incubated at 30° C. for 30 min. The reaction is stopped by basification of the assay mixture with an equal volume of 0.5M CAPS buffer (Sigma Chemical Co., St. Louis, Mo., pH 10.5 and the activity measured by determining the absorbance of the released aglycone. The activity of the enzyme can be measured not only against coniferin, but also against related glucosides including 4-NPG, 2-NPG, MUG and the synthetic coniferin analog VRA-G. For quantitative calculations, the following analysis wavelengths and values (mM^-1 ×cm^-1) were used: coniferyl alcohol, 325 nm, ε=7.0; sinapyl alcohol, 315 nm, ε=11.2; 2-nitrophenol, 420 nm, ε=4.55, 4-nitrophenol, 400 nm, ε=19.3; 4-methyl umbelliferone, 360 nm, ε=18.25; VRA-G, 490 nm, ε=38.6; salicyl alcohol, 295 nm, ε=3.3.
Soluble proteins and insoluble proteins (inclusion bodies) prepared from induced and uninduced bacterial cells were assayed for coniferin hydrolysis activity by the method described above. […] The activity in this fraction could be increased up to 2-fold by increasing the IPTG concentration from 0.4 -1.0 mM, and by reducing the growing temperature from 37° C. to 29° C. […] This protein was purified by anion exchange chromatography using coniferin as the substrate for monitoring β-glucosidase activity. The purified enzyme often migrated as a doublet on nondenaturing gels. […] The latter would result in the synthesis of a polypeptide that is truncated at the N-terminus, as opposed to the full-length polypeptide initiated by ribosome binding to the standard ribosome binding site in the vector.

[2] = molecular target: T2, native coniferin beta-glucosidase (CBG) purified from pine xylem (Pinus contorta, UniProt Q9ZT64); assay: β-glucosidase assay, substrate specificity of coniferin β-glucosidase purified from pine xylem; assay type: biochemical; conditions: substrate hydrolysis relative to coniferin; 100% activity represents 14pKat; 2 mM glucoside substrate, 0.2M MES pH 5.5, 30° C., 30 min
T2 construct: from tissue; host or cells: Pinus contorta xylem
T2 sequence (Q9ZT64 24-513): T1 sequence (Q9ZT64 24-513)
Excerpt: Coniferin beta-glucosidase enzyme was purified from Pinus contorta xylem tissue as described by Dharmwardhana et al. (1995). In order to determine the N-terminal amino acid sequence of the purified enzymne, it was run on native PAGE gels, stained for activity on the synthetic coniferin substrate VRA-G and the staining band excised and subjected to SDS-PAGE. The protein was then transferred to an Immobilon membrane for N-terminal amino acid sequencing using an Applied Biosystems 470A gas phase sequencer (Edman degradation).
as §1

SMILES	Relative activity, E. coli CBG [1]	Relative activity, Native CBG [2]
COc1cc(/C=C/CO)cc(OC)c1O[C@@H]1O[C@H](CO)[C@@H](O)[C@H](O)[C@H]1O [syringin]	65%	51%
O=[N+]([O-])c1ccccc1O[C@@H]1O[C@H](CO)[C@@H](O)[C@H](O)[C@H]1O [2-nitrophenyl-β-glucoside, 2-nitrophenyl β-glucoside]	50%	51%
Cc1cc(=O)oc2cc(O[C@@H]3O[C@H](CO)[C@@H](O)[C@H](O)[C@H]3O)ccc12 [4-methyl umbelliferyl-β-glucoside, 4-methylumbelliferyl β-glucoside]	20%	18%
COc1cc(/C=C/CO)ccc1O[C@@H]1O[C@H](CO)[C@@H](O)[C@H](O)[C@H]1O [coniferin]	100%	100%
O=[N+]([O-])c1ccc(O[C@@H]2O[C@H](CO)[C@@H](O)[C@H](O)[C@H]2O)cc1 [4-nitrophenyl-β-glucoside, 4-nitrophenyl β-glucoside]	35%	30%

From patent US5973228A, “Coniferin beta-glucosidase cDNA for modifying lignin content in plants” (University of British Columbia, priority 1998, dated 1999)
